Holding throughout (format): in vivo
Common to all, as to parameters: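 grade 0 to 5 of growth suppression where 5 is 90% or more and 0 below 10%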

The subject of test [1] is Amaranthus viridis L. Kind of test: Herbicidal effects in upland field foliar treatment (Test Example 3). The following applies: criteria of Table 138; for herbicidal effects on Amaranthus viridis L.: 1000 g of the active ingredient per hectare, 14th day after the treatment, wettable powder; for herbicidal effect (index) on Amaranthus viridis L.: 1000 g active ingredient per hectare, 14th day after treatment. In outline: (§1)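 Weeds were sown in upland field soil and grown two weeks in a greenhouse before a foliar spray over the whole plant. Wettable powder was diluted in water and applied at 1000 L/ha, delivering 1000 g active ingredient/ha. Herbicidal effect was scored against set rating criteria 14 days after treatment.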

For test [2], the system named is Abutilon theophrasti medicus. The test is described as above. The following applies: criteria of Table 138; for herbicidal effects on Abutilon theophrasti medicus: 1000 g of the active ingredient per hectare, 14th day after the treatment, wettable powder; for herbicidal effect (index) on Abutilon theophrasti medicus: 1000 g active ingredient per hectare, 14th day after treatment. In outline: as §1

Test [3] concerns Echinochloa crus-galli (L.) P. Beauv. var. crus-galli. The description is as above. The following applies: criteria of Table 138; for herbicidal effects on Echinochloa crus-galli (L.) P. Beauv. var. crus-galli: 1000 g of the active ingredient per hectare, 14th day after the treatment, wettable powder; for herbicidal effect (index) on Echinochloa crus-galli (L.) P. Beauv. var. crus-galli: 1000 g active ingredient per hectare, 14th day after treatment. The procedure, abridged:
as §1

The test system of test [4] is Scirpus juncoides Roxb. var. ohwianus. T. Koyama. The test can be described thus: Herbicidal effects in paddy field soil treatment (Test Example 1). The following applies: paddy field soil treatment; 1000 g of the active ingredient per hectare; wettable powder added dropwise on water surface; 21st day after treatment. In outline: (§2)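 Weed seeds were sown into puddled, leveled paddy soil in pots and flooded to 3 cm water depth. One day later the diluted wettable powder formulation was dropped onto the water surface at 1000 g active ingredient per hectare. Herbicidal effect was scored on day 21 after greenhouse growth.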

Test [5] deals with Monochoria vaginalis (Burm. f.) Presl var. plantaginea (Roxb.) Solms-Laub. The test is described as above. The following applies: paddy field soil treatment; 1000 g of the active ingredient per hectare; wettable powder added dropwise on water surface; 21st day after treatment. In outline:
as §2

For test [6], the system named is Echinochloa oryzicola Vasing. The test is described as above. As to conditions: paddy field soil treatment; 1000 g of the active ingredient per hectare; wettable powder added dropwise on water surface; 21st day after treatment. The procedure, abridged:
as §2

Test [7] deals with Amaranthus viridis L. Kind of test: Herbicidal effects in upland field soil treatment (Test Example 2). As to conditions: 1000 g active ingredient per hectare, 21st day after treatment, criteria of Table 138. The procedure, abridged:
(§3)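 Pre-emergence soil application: seeds sown in upland field soil, covered, then wettable powder diluted in water sprayed on the soil surface at 1000 g active ingredient/ha in 1000 L/ha. Plants grown in greenhouse; herbicidal effect scored on a rating scale 21 days after treatment.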

Test [8] concerns Abutilon theophrasti medicus. The description is as above. As to conditions: 1000 g active ingredient per hectare, 21st day after treatment, criteria of Table 138. The procedure, abridged:
as §3

In the case of `O=C1CCCC(O)=C1C(=O)c1nc2cccnc2n(Cc2ccccc2)c1=O` [III-107], in the test on Amaranthus viridis L. [1], the “herbicidal effects on Amaranthus viridis L.” value amounted to 5. Also, the “herbicidal effects on Abutilon theophrasti medicus” value in test [2] is reported as 5. For the same compound, in test [3], the “herbicidal effects on Echinochloa crus-galli (L.) P. Beauv. var. crus-galli” value was determined as 4. The “Herbicidal effects index, Scirpus juncoides Roxb. var. ohwianus. T. Koyama” value in test [4] was found to be 5. Also, the “Herbicidal effects index, Monochoria vaginalis (Burm. f.) Presl var. plantaginea (Roxb.) Solms-Laub.” value (“Herbicidal effects index … (Roxb.) Solms-Laub.” below) in test [5] was 5. Further, the “Herbicidal effects index, Echinochloa oryzicola Vasing” value in test [6] was 5. Also, the “herbicidal effect (index) on Amaranthus viridis L.” value in the test with Amaranthus viridis L. [7] worked out at 5. Also, the “herbicidal effect (index) on Abutilon theophrasti medicus” value in test [8] is given as 4.
`COCCn1c(=O)c(C(=O)C2=C(O)CCCC2=O)nc2cccnc21` [III-88]: the “herbicidal effects on Amaranthus viridis L.” value with Amaranthus viridis L. [1] is listed as 5. For the same compound, the “herbicidal effects on Abutilon theophrasti medicus” value in test [2] worked out at 5. Also, the “herbicidal effects on Echinochloa crus-galli (L.) P. Beauv. var. crus-galli” value in test [3] turned out to be 5. The “Herbicidal effects index, Scirpus juncoides Roxb. var. ohwianus. T. Koyama” value in test [4] turned out to be 4. Moreover, in test [5], the “Herbicidal effects index … (Roxb.) Solms-Laub.” value was determined as 5. In addition, the “Herbicidal effects index, Echinochloa oryzicola Vasing” value in test [6] is 5. Also, the “herbicidal effect (index) on Amaranthus viridis L.” value in the test on Amaranthus viridis L. [7] came out at 5. Further, in test [8], the “herbicidal effect (index) on Abutilon theophrasti medicus” value is reported as 5.
With `O=C1CCCC(O)=C1C(=O)c1nc2ccccc2n(-c2ccon2)c1=O` [I-144], the “herbicidal effect (index) on Amaranthus viridis L.” value with Amaranthus viridis L. [1] and in the test with Amaranthus viridis L. [7] was 5 throughout. In addition, the “herbicidal effect (index) on Abutilon theophrasti medicus” value in test [2] and in test [8] was 5 each time. The “herbicidal effect (index) on Echinochloa crus-galli (L.) P. Beauv. var. crus-galli” value in test [3] was determined as 5. The “Herbicidal effects index, Scirpus juncoides Roxb. var. ohwianus. T. Koyama” value in test [4] came to 5. Besides, the “Herbicidal effects index … (Roxb.) Solms-Laub.” value in test [5] came to 5. In test [6], the “Herbicidal effects index, Echinochloa oryzicola Vasing” value is listed as 5.
Turning to `CSCn1c(=O)c(C(=O)C2=C(O)CCCC2=O)nc2ccccc21` [I-70], the “herbicidal effect (index) on Amaranthus viridis L.” value in the test with Amaranthus viridis L. [1] and in the test on Amaranthus viridis L. [7] was 5 throughout. For the same compound, the “herbicidal effect (index) on Abutilon theophrasti medicus” value in test [2] and in test [8] was 5 throughout. In test [3], the “herbicidal effect (index) on Echinochloa crus-galli (L.) P. Beauv. var. crus-galli” value was 5. Further, the “Herbicidal effects index, Scirpus juncoides Roxb. var. ohwianus. T. Koyama” value in test [4] amounted to 5. In test [5], the “Herbicidal effects index … (Roxb.) Solms-Laub.” value is recorded as 5. Moreover, in test [6], the “Herbicidal effects index, Echinochloa oryzicola Vasing” value is listed as 5.
`CC(C)(C)OC(=O)Cn1c(=O)c(C(=O)C2=C(O)CCCC2=O)nc2cccnc21` [III-99]: the “herbicidal effects on Amaranthus viridis L.” value in the test with Amaranthus viridis L. [1] stood at 5. Further, in test [2], the “herbicidal effects on Abutilon theophrasti medicus” value is listed as 5. In addition, the “herbicidal effects on Echinochloa crus-galli (L.) P. Beauv. var. crus-galli” value in test [3] is 4. In test [4], the “Herbicidal effects index, Scirpus juncoides Roxb. var. ohwianus. T. Koyama” value was found to be 5. Further, in test [5], the “Herbicidal effects index … (Roxb.) Solms-Laub.” value was 5. The “Herbicidal effects index, Echinochloa oryzicola Vasing” value in test [6] is recorded as 5. Moreover, in the test on Amaranthus viridis L. [7], the “herbicidal effect (index) on Amaranthus viridis L.” value came to 5. In addition, in test [8], the “herbicidal effect (index) on Abutilon theophrasti medicus” value was 5.
`O=C1CCCC(O)=C1C(=O)c1nc2ccccc2n(-c2ccc(C(F)(F)F)cn2)c1=O` [I-179]: the “herbicidal effect (index) on Amaranthus viridis L.” value in the test on Amaranthus viridis L. [1] and with Amaranthus viridis L. [7] was 5 each time. For the same compound, the “herbicidal effect (index) on Abutilon theophrasti medicus” value in test [2] and in test [8] was 5 each time. In addition, in test [3], the “herbicidal effect (index) on Echinochloa crus-galli (L.) P. Beauv. var. crus-galli” value turned out to be 5. For the same compound, the “Herbicidal effects index, Scirpus juncoides Roxb. var. ohwianus. T. Koyama” value in test [4] is recorded as 5. Also, the “Herbicidal effects index … (Roxb.) Solms-Laub.” value in test [5] was 5. Further, in test [6], the “Herbicidal effects index, Echinochloa oryzicola Vasing” value is listed as 5.
Consider `O=C1CCCC(O)=C1C(=O)c1nc2ccccc2n(-c2ccc(Br)cn2)c1=O` [I-271], for which the “herbicidal effect (index) on Amaranthus viridis L.” value in the test with Amaranthus viridis L. [1] and with Amaranthus viridis L. [7] was 5 each time. In addition, the “herbicidal effect (index) on Abutilon theophrasti medicus” value in test [2] and in test [8] was 5 each time. Further, the “herbicidal effect (index) on Echinochloa crus-galli (L.) P. Beauv. var. crus-galli” value in test [3] came out at 5. For the same compound, in test [4], the “Herbicidal effects index, Scirpus juncoides Roxb. var. ohwianus. T. Koyama” value was 5. Further, the “Herbicidal effects index … (Roxb.) Solms-Laub.” value in test [5] is on record as 5. For the same compound, in test [6], the “Herbicidal effects index, Echinochloa oryzicola Vasing” value is listed as 5.
Regarding `O=C1CCCC(O)=C1C(=O)c1nc2ccccc2n(-c2cccc3ccccc23)c1=O` [I-263], the “herbicidal effect (index) on Amaranthus viridis L.” value in the test with Amaranthus viridis L. [1] and with Amaranthus viridis L. [7] was 5 throughout. The “herbicidal effect (index) on Abutilon theophrasti medicus” value in test [2] and in test [8] was 5 throughout. For the same compound, the “herbicidal effect (index) on Echinochloa crus-galli (L.) P. Beauv. var. crus-galli” value in test [3] was found to be 5. Further, in test [4], the “Herbicidal effects index, Scirpus juncoides Roxb. var. ohwianus. T. Koyama” value is listed as 5. For the same compound, the “Herbicidal effects index … (Roxb.) Solms-Laub.” value in test [5] came out at 5. Moreover, in test [6], the “Herbicidal effects index, Echinochloa oryzicola Vasing” value came out at 5.
Regarding `C#CCn1c(=O)c(C(=O)C2=C(O)CCCC2=O)nc2cccnc21` [III-35], in the test with Amaranthus viridis L. [1], the “herbicidal effects on Amaranthus viridis L.” value worked out at 5. The “herbicidal effects on Abutilon theophrasti medicus” value in test [2] is 5. In addition, the “herbicidal effects on Echinochloa crus-galli (L.) P. Beauv. var. crus-galli” value in test [3] is on record as 4. The “Herbicidal effects index, Scirpus juncoides Roxb. var. ohwianus. T. Koyama” value in test [4] came out at 5. For the same compound, in test [5], the “Herbicidal effects index … (Roxb.) Solms-Laub.” value came out at 5. In addition, in test [6], the “Herbicidal effects index, Echinochloa oryzicola Vasing” value stood at 4. Further, the “herbicidal effect (index) on Amaranthus viridis L.” value in the test with Amaranthus viridis L. [7] is recorded as 5. Further, in test [8], the “herbicidal effect (index) on Abutilon theophrasti medicus” value came to 5.
Turning to `CCOCn1c(=O)c(C(=O)C2=C(O)CCCC2=O)nc2ccccc21` [I-50], the “herbicidal effect (index) on Amaranthus viridis L.” value with Amaranthus viridis L. [1] and in the test with Amaranthus viridis L. [7] was 5 throughout. The “herbicidal effect (index) on Abutilon theophrasti medicus” value in test [2] and in test [8] was 5 in each case. For the same compound, the “herbicidal effect (index) on Echinochloa crus-galli (L.) P. Beauv. var. crus-galli” value in test [3] was 4. In test [4], the “Herbicidal effects index, Scirpus juncoides Roxb. var. ohwianus. T. Koyama” value came to 5. In test [5], the “Herbicidal effects index … (Roxb.) Solms-Laub.” value came to 5. Moreover, the “Herbicidal effects index, Echinochloa oryzicola Vasing” value in test [6] is 5.
Consider `CCn1c(=O)c(C(=O)C2=C(O)CCCC2=O)nc2ccccc21` [Compound I-7], for which the “herbicidal effect (index) on Amaranthus viridis L.” value in the test on Amaranthus viridis L. [1] and in the test on Amaranthus viridis L. [7] was 5 throughout. For the same compound, the “herbicidal effect (index) on Abutilon theophrasti medicus” value in test [2] and in test [8] was 5 throughout. Also, the “herbicidal effect (index) on Echinochloa crus-galli (L.) P. Beauv. var. crus-galli” value in test [3] amounted to 4. Further, the “Herbicidal effects index, Scirpus juncoides Roxb. var. ohwianus. T. Koyama” value in test [4] was determined as 5. Moreover, in test [5], the “Herbicidal effects index … (Roxb.) Solms-Laub.” value is reported as 5. Besides, the “Herbicidal effects index, Echinochloa oryzicola Vasing” value in test [6] is 5.
For the compound `O=C1CCCC(O)=C1C(=O)c1nc2ccccc2n(-c2ncccn2)c1=O` [I-195], the “herbicidal effect (index) on Amaranthus viridis L.” value with Amaranthus viridis L. [1] and in the test with Amaranthus viridis L. [7] was 5 throughout. Besides, the “herbicidal effect (index) on Abutilon theophrasti medicus” value in test [2] and in test [8] was 5 in each case. The “herbicidal effect (index) on Echinochloa crus-galli (L.) P. Beauv. var. crus-galli” value in test [3] came to 5.
Take `O=C1CCCC(O)=C1C(=O)c1nc2ccccc2n(C2CCCC2)c1=O` [I-21]: the “herbicidal effect (index) on Amaranthus viridis L.” value in the test on Amaranthus viridis L. [1] and in the test on Amaranthus viridis L. [7] was 5 each time. Moreover, the “herbicidal effect (index) on Abutilon theophrasti medicus” value in test [2] and in test [8] was 5 throughout. In test [3], the “herbicidal effect (index) on Echinochloa crus-galli (L.) P. Beauv. var. crus-galli” value stood at 5.

For the origin of these results see patent publication US8389523B2, “Substituted quinoxaline and an agrochemical composition thereof” (Kumiai Chemical Industry Co., Ltd., priority 2007, dated 2013).
